# From US7378387B2, “Method of suppressing immune response by reducing intracellular content of glutathione in macrophages and monocytes” (Ajinomoto Co., Inc., priority 1997, dated 2008)
# Tests used:
# [1] = system: dextran sulfate-induced inflammatory bowel disease; experiment: Dextran sulfate-induced inflammatory bowel disease in γc knock out mice (Example 14); format: in vivo
# Protocol: To 3-week-old γc knock out mice with +/− genotypes were administered 20 μg[…] of (NAC-OMe)2 three times a week for 2 weeks. On day 16, the free drinking of 1% dextran sulfate water was started. […] The γc knock out mice and their wild-type male mice (+/Y- and −/Y) and female mice (+/+, +/− and −/−) were caused to freely drink water containing 1% dextran sulfate as a inflammatory bowel disease model.
# [2] = system: IL-6; experiment: IL-6 in macrophage culture supernatant, advanced tumor-bearing mice (Example 4); format: in vivo, CDF1 mice; conditions: oral 1 mg/0.5 ml/h for 10 days, COLON 26 mice; control mice 5,200 pg/ml
# Protocol: A stimulator was added to 1×10^6 MΦ, and the incubation was conducted at 37° C. for 2 days in a CO2 incubator. After centrifugation, the culture supernatant was collected.
# (§1) The amount of IL-6 was determined using IL-6 dependent mouse hybridoma MH60 cells (J. Eur. Immunol., vol. 18, p. 951, 1988). One hundred microliters of the culture supernatant were added to 100 μl of the MH60 cell suspension adjusted to 1×10^5 cells/ml in a 10% FCS-containing RPMI medium, and the mixed solution was incubated at 37° C. for 2 days in a CO2 incubator. Subsequently, 10 μl of MTT (supplied by Sigma Co.) solution adjusted to a concentration of 5 mg/ml in the same medium were added thereto, and the reaction was conducted at 37° C. for 5 hours. After the completion of the reaction, the centrifugation was conducted. The supernatant (160 μl) was removed, and 100 μl of a mixture of hydrochloric acid and propanol were added to the residue. The suspension was conducted using a pipetman to dissolve the cells. Immediately after the dissolution, an absorbance of 570 nm was measured with an immunometer (supplied by Bio-Rad).
# The COLON 26 transplantable tumor was implanted subcutaneously in the back portion of CDF1 mice at a density of 5×10^5 cells/mouse. […] Glutathione ethyl ester was orally administered to the mice every day in a dosage of 1 mg/0.5 ml/h. This oral administration was continued for 10 days. […]
# [3] = system: reduced glutathione in intraperitoneal macrophages; experiment: Reduced glutathione in intraperitoneal macrophages of NOD mice by ACAS (Example 22); format: in vivo; conditions: doses given per substance
# [4] = system: IL-6; experiment: IL-6 in culture supernatant of macrophages of NOD mice (Example 22); format: in vivo; conditions: oral 1 mg/0.5 ml/h/day on alternate days, five times, age 4 weeks; control group 3800 pg/ml
# Protocol: as §1
# Through a probe, glutathione ethyl ester was orally given at 1 mg/0.5 ml/h/day to the NOD mice of age 4 weeks on alternate days, in total five times. By the same method as in Example 3, intraperitoneal cells were collected from the mice to sample intraperitoneal macrophages, which were then suspended and adjusted in a phenol red-free RPMI 1640 culture medium supplemented with 10% fetal calf serum to 3×10^6 cells/ml. […]
# [5] = system: reductive glutathione in peritoneal macrophages; experiment: Reductive glutathione content of peritoneal macrophages by ACAS, advanced tumor-bearing mice (Example 4); format: in vivo, CDF1 mice; conditions: oral 1 mg/0.5 ml/h every day for 10 days from day 21 after COLON 26 implantation; control physiological saline
# Protocol: Oxidative and reductive macrophages collected from peritoneal cavities of advanced tumor-bearing cachectic mice (COLON 26) and normal mice were determined. The COLON 26 transplantable tumor well known to induce a cancer cachexia was implanted subcutaneously in the back portion of CDF1 mice at a density of 5×10^5 cells/mouse. On day 21 after the tumor implantation, the cachectic condition was provided. Five milliliters of a physiological saline solution were intraperitoneally injected into the mice which became resistant to a therapeutic treatment. Peritoneal macrophages were collected, and suspended in a phenol red-free RPMI 1640 medium containing 10% fetal calf serum to a density of 3×10^5 cells/ml. One hundred microliters of the suspension were charged in a Lab-Tek Chamber Slide (#136439, supplied by Nunc), and incubated in 5% CO2 at 37° C. for 3 hours. After the nonadherent cells were removed, 200 μl of the above-mentioned medium free from serum were added thereto, and monochlorobimane (MCB) was added thereto in an amount of 10 μM. The reaction was conducted for 30 minutes, and the image analysis was conducted on the basis of the UV absorption using an ACAS device (supplied by Meridien).
# The COLON 26 transplantable tumor was implanted subcutaneously in the back portion of CDF1 mice at a density of 5×10^5 cells/mouse. […]
# [6] = system: IL-12; experiment: IL-12 production of MΦ after NAC drinking and/or IL-2 administration (Example 8); format: in vivo, DBA/2 female mice; conditions: stimulated with LPS and IFNγ; control mice 0 pg/ml
# Protocol: The amount of IL-12 was determined through bioassay using cells of human T cell strain 2D6 (J. Leukocyte Biology, vol. 61, p. 346, 1997).
# 2D6 cells which had been incubated in an RPMI 1640 medium containing 500 pg/ml of recombinant human IL-12, 50 μM of 2-mercaptoethanol and 10% FCS (fetal calf serum) were moved to a tube, and centrifugally washed three times with the above-mentioned medium without IL-12 and cell density was adjusted to 1×10^5/ml. The cell suspension was added in an amount of 100 μl each to a 96-well flat bottom plate containing a sample serially diluted in advance with an RPMI 1640 medium containing 50 μM of 2-mercaptoethanol and 10% FCS in an amount of 100 μl each. Subsequently, the mixture was charged into a 5% […] incubator of 37° C., and incubated for 48 hours. For final 6 hours, ^3H-TdR was pulsed (a substance adjusted to 370 kBq/ml in an RPMI 1640 medium containing 50 μM of 2-mercaptoethanol and 10% FCS was added in an amount of 50 μl each). The cells a harvested, and the radioactivity was measured using a β counter (Matrix 96, supplied by Packard).
compound,measurement,setting,value
"COC(=O)[C@H](CSSC[C@H](NC(C)=O)C(=O)OC)NC(C)=O [(NAC-OMe)2, N,N′-diacetylcystine dimethyl ester]",occurrence rate of the inflammatory bowel disease,"[1]; +/+ mice, non-administration 80%",60%
same,"occurrence rate of the inflammatory bowel disease, Day 30","[1]; +/− mice, 20 μg/h three times a week for 2 weeks, 1% dextran sulfate water from day 16, non-administration 100%",16.6%
same,survival rate,"[1]; +/− mice, 20 μg/h three times a week for 2 weeks, 1% dextran sulfate water, non-administration 57%",100%
"CCOC(=O)CNC(=O)[C@H](CS)NC(=O)CC[C@H](N)C(=O)O [GSH-OEt, glutathione monoethyl ester]",amount of IL-6 in macrophage culture supernatant,[2],642 pg/mL
same,relative ratio of oxidative macrophages compared with saline-dosed NOD mice,[3]; intraperitoneal dosing on alternate days from age 3-4 weeks,same action is also observed
same,relative ratio of oxidative macrophages compared with saline-dosed NOD mice,[3]; oral dosing on alternate days from age 3-4 weeks,same action is also observed
same,relative ratio of oxidative macrophages compared with saline-dosed NOD mice,"[3]; oral dosing on alternate days from age 3-4 weeks, listed as glutathione ethyl ester",decreased
same,IL-6 in the culture supernatant of the macrophages,[4],460 pg/mL
same,amount of oxidative macrophage (reductive glutathione content decreased) in comparison with control mice,[5],relatively decreased
"CC(=O)N[C@@H](CS)C(=O)O [NAC, N-acetylcysteine, reference compound]",amount of IL-12,[6],620 pg/mL
